Reference: paper PMC5716981, “Inhibition of A2A Adenosine Receptor Signaling in Cancer Cells Proliferation by the Novel Antagonist TP455” (Frontiers in Pharmacology, 2017)

Legend:
A375 cells = experiment: DELFIA cell proliferation (BrdU) in A375 cells; format: cell-based, human
Procedure: (§1) Tumoral cell lines A375 (human skin malignant melanoma), A549 (adenocarcinomic human alveolar basal epithelial cells) and rat cell line MRMT-1 (rat breast carcinoma cells) were purchased from ATCC and were grown adherently at 37°C in 5% CO2/95% air. A375 and A549 were maintained in DMEM high glucose medium containing 10% fetal calf serum, penicillin (100 U/mL) and streptomycin ([…]) and MRMT-1 were grown in RPMI 1640 medium containing 10% fetal calf serum, penicillin (100 U/mL), streptomycin ([…]), and L-glutamine (2 mM). Adenosine receptor agonists and antagonists and inhibitors of kinases, were made up in dimethyl sulfoxide solution (DMSO) and then diluted in cell culture medium (0.1 max 0.2% of DMSO). An equal amount of DMSO was used in control cells (CTR).
(§2) The DELFIA assay was performed to determine cell proliferation according to the manufacturer’s protocol from PerkinElmer (Milan, Italy). The assay is a time-resolved fluoroimmunoassay based on the incorporation of BrdU into newly synthesized DNA strands of proliferating cells cultured in microliter plates. Incorporated BrdU is detected using a europium labeled monoclonal antibody and the fluorescence measured is proportional to the DNA synthesis in the cell population of each well. A375, A549, and MRMT-1 cells were cultured over night at 1000 cells/well in a 96-well plate (at a final volume of 100 μl per well), agonists and antagonists were added and the cells were incubated for 30′ before addition of the BrdU-Labeling solution 10 μl/well. The cells were then cultured for 24, 48, or 72 h. At the end of the incubation period, cells were fixed (fix solution 100 μl/well), added with 100 μl/well of Anti-BrdU-Eu (0.5 μg/ml) and incubated for 120 min at room temperature. After four washes, 200 μl of DELFIA Inducer were added at room temperature for 15 min and the Eu-fluorescence was detected through an Ensight Perkin Elmer-multimode plate reader (Perkin Elmer, Milan, Italy). Two kinds of controls were performed: the blank where no cells were added to the well but only culture medium and the background where no BrdU was added to the wells.

A2AARs [1] = biological target: T1, A2AARs (Homo sapiens, UniProt P29274); experiment: [3H]ZM241385 competition binding in A549 lung carcinoma membranes
T1 sequence (P29274 whole entry): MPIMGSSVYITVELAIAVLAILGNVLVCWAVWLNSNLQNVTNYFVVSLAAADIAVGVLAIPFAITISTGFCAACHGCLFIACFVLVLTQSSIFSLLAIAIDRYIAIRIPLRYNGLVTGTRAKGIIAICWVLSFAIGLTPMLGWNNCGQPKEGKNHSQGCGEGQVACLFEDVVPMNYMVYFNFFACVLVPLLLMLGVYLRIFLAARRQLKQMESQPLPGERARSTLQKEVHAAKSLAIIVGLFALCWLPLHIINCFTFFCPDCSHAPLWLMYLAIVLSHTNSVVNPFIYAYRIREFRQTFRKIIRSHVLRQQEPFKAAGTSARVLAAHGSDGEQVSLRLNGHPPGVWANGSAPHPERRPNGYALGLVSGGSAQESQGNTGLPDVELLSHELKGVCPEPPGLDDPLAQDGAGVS
Procedure: (§4) For membrane preparation the culture medium was removed. […] The cell suspension was homogenized with Polytron and the homogenate was spun for 10 min at 1000 g. The supernatant was then centrifuged for 30 min at 100,000g. The membrane pellet was resuspended in 50 mM Tris HCl buffer pH 7.4, 10 mM MgCl2. […] Then the suspension was frozen at -80°C.
(§5) At the end of the incubation, bound and free radioactivity were separated by filtering, in a Brandel cell harvester, the assay mixture through Whatman GF/B glass-fiber filters. The filter bound radioactivity was counted in a liquid Scintillation Counter Tri Carb Packard 2500 TR (Perkin-Elmer Life and Analytical Sciences, Boston, MA, United States).
(§6) LIGAND was also used to determine inhibitory binding constant (Ki) values from the competition binding experiments. All values in the figures and text are expressed as mean ± standard error (SE) of three independent experiments.

pJNK1/2 = experiment: AlphaScreen SureFire pJNK1/2 assay in MRMT-1, A375 and A549 cells; format: cell-based, human and rat; conditions: 10 nM antagonist 30 min pretreatment, 100 nM CGS21680 5 min, MRMT-1, A375 and A549 cells
Procedure: (§3) AlphaScreen SureFire phospho(p)ERK1/2(Thr202/Tyr204), pJNK1/3(pThr183/Tyr185), and p-AKT1/2/3 (pThr308) assay kits (Perkin Elmer, Milan, Italy) were utilized. Upon kinase phosphorylation and excitation at 680 nm, fluorescent signals at 615 nm are emitted. Cells were seeded in 100 μl culture medium into 96-well plates (30,000/well), and incubated at 37°C for 24 h. Cells were pretreated with various inhibitors and TP455 for 30 min. Then, receptors were maximally stimulated using 100 nM CGS 21680 and incubated for 5 min (ERK1/2, JNK1/2-MAPK) or 30 min (AKT) at 37°C. After agonist removal, lysis buffer was added, then donor and acceptor beads linked to specific anti-p-kinase- and anti-kinase-antibodies were dispensed, according to manufacturer instructions. Finally, fluorescent signals were detected through an Ensight Perkin Elmer-multimode plate reader (Perkin Elmer, Milan, Italy). Data were normalized to fold activation above basal p-kinase levels (=100). For inhibitor graphs, raw data were transformed into percentages relative to controls (basal level = 100%) in order to merge data from several experiments.

A2AARs [2] = biological target: A2AARs (Rattus norvegicus, UniProt P30543); experiment: biochemical
Sequence of A2AARs (Rattus norvegicus, UniProt P30543) (P30543 whole entry): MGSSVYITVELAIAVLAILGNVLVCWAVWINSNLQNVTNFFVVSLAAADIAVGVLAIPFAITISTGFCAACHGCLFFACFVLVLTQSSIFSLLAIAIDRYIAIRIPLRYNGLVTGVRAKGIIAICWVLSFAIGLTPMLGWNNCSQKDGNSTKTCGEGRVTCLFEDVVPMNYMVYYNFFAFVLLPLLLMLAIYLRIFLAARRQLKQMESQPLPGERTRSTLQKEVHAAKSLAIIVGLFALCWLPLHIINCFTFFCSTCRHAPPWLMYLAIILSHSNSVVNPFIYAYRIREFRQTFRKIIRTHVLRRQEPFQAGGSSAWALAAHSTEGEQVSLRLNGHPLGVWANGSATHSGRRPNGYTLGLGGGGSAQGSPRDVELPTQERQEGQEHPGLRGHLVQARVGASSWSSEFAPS
Procedure: as §4, §5, §6

pERK1/2 = experiment: AlphaScreen SureFire pERK1/2 assay in MRMT-1, A375 and A549 cells; format: cell-based, human and rat; conditions: 10 nM antagonist 30 min pretreatment, 100 nM CGS21680 5 min, MRMT-1, A375 and A549 cells
Procedure: as §3

A549 cells = experiment: DELFIA cell proliferation (BrdU) in A549 cells; format: cell-based, human
Procedure: as §1, §2

MRMT-1 cells = experiment: DELFIA cell proliferation (BrdU) in MRMT-1 cells; format: cell-based, rat
Procedure: as §1, §2

A2AARs [3] = biological target: T1, A2AARs; experiment: [3H]ZM241385 competition binding in A375 melanoma membranes
Procedure: as §4, §5, §6

pAKT = experiment: AlphaScreen SureFire pAKT assay in MRMT-1, A375 and A549 cells; format: cell-based, human and rat; conditions: 10 nM antagonist 30 min pretreatment, 100 nM CGS21680 10 min, MRMT-1, A375 and A549 cells
Procedure: as §3, with “Then, receptors were maximally stimulated using 100 nM CGS 21680 and incubated for 5 min (ERK1/2, JNK1/2-MAPK) or 30 min (AKT) at 37°C.” left out

[4] = 10 nM antagonist, 100 nM CGS21680, 48 h

COc1ccccc1CNc1nc(N)c2nc(-c3ccco3)sc2n1 [TP455, 2-(2-furanyl)-N^5-(2-methoxybenzyl)[1,3]thiazolo[5,4-d]pyrimidine-5,7-diammine]
effect on cell proliferation when tested alone (A375 cells; 10 nM alone, 48 h): did not alter cell proliferation
antagonism of CGS21680-induced cell proliferation (A375 cells; [4]): antagonized
Ki (A2AARs [1]): 5.3 pM
antagonism of CGS21680-induced JNK1/2 phosphorylation (pJNK1/2): potently inhibited
Ki (A2AARs [2]): 6.1 pM
antagonism of CGS21680-induced ERK1/2 phosphorylation (pERK1/2): potently inhibited
effect on cell proliferation when tested alone (A549 cells; 10 nM alone, 24 h): did not alter cell proliferation
antagonism of CGS21680-induced cell proliferation (A549 cells; 10 nM antagonist, 100 nM CGS21680, 24 h): antagonized
effect on cell proliferation when tested alone (MRMT-1 cells; 10 nM alone, 48 h): did not alter cell proliferation
antagonism of CGS21680-induced cell proliferation (MRMT-1 cells; [4]): antagonized
Ki (A2AARs [3]): 5.8 pM
antagonism of CGS21680-induced AKT phosphorylation (pAKT): potently inhibited
